Tests used:
[1] = test system: bedstraw; assay: Test B pre/postemergence bedstraw; assay type: in vivo, Galium aparine
Summary of the method: (§1)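 Test chemicals in a non-phytotoxic solvent mixture with surfactant were sprayed preemergence onto planted seeds and postemergence onto plants 2 to 18 cm tall (1- to 4-leaf stage). After twelve to sixteen days in a greenhouse, injury was visually rated against untreated controls from 0 (no effect) to 10 (complete control).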

[2] = test system: blackgrass; assay: Test B pre/postemergence blackgrass; assay type: in vivo, Alopecurus myosuroides
Summary of the method: as §1

[3] = test system: surinam grass; assay: Test B pre/postemergence surinam grass; assay type: in vivo, Brachiaria decumbens
Summary of the method: as §1

[4] = test system: cocklebur; assay: Test B pre/postemergence cocklebur; assay type: in vivo, Xanthium strumarium
Summary of the method: as §1

[5] = test system: corn; assay: Test B pre/postemergence corn; assay type: in vivo, Zea mays
Summary of the method: as §1

[6] = test system: crabgrass; assay: Test B pre/postemergence crabgrass; assay type: in vivo, Digitaria sanguinalis
Summary of the method: as §1

[7] = test system: giant foxtail; assay: Test B pre/postemergence giant foxtail; assay type: in vivo, Setaria faberii
Summary of the method: as §1

[8] = test system: morningglory; assay: Test B pre/postemergence morningglory; assay type: in vivo, Ipomoea hederacea
Summary of the method: as §1

[9] = test system: pigweed; assay: Test B pre/postemergence pigweed; assay type: in vivo, Amaranthus retroflexus
Summary of the method: as §1

[10] = test system: rape; assay: Test B pre/postemergence rape; assay type: in vivo, Brassica napus
Summary of the method: as §1

[11] = test system: soybean; assay: Test B pre/postemergence soybean; assay type: in vivo, Glycine max
Summary of the method: as §1

[12] = test system: sugar beet; assay: Test B pre/postemergence sugar beet; assay type: in vivo, Beta vulgaris
Summary of the method: as §1

[13] = test system: velvetleaf; assay: Test B pre/postemergence velvetleaf; assay type: in vivo, Abutilon theophrasti
Summary of the method: as §1

[14] = test system: wheat; assay: Test B pre/postemergence wheat; assay type: in vivo, Triticum aestivum
Summary of the method: as §1

[15] = test system: wild oat; assay: Test B pre/postemergence wild oat; assay type: in vivo, Avena fatua
Summary of the method: as §1

[16] = test system: purple nutsedge; assay: Test B pre/postemergence purple nutsedge; assay type: in vivo, Cyperus rotundus
Summary of the method: as §1

[17] = Postemergence, Rate 62 g/ha, scale 0 to 10, 0 is no effect, 10 is complete control
[18] = Postemergence, Rate 125 g/ha, scale of 0 to 10 where 0 is no effect and 10 is complete control
[19] = Preemergence, Rate 125 g/ha, scale of 0 to 10 where 0 is no effect and 10 is complete control
[20] = Preemergence, Rate 250 g/ha, scale 0 (no effect) to 10 (complete control)
[21] = Rate 250 g/ha, Postemergence, scale 0 to 10, 0 is no effect, 10 is complete control
[22] = Rate 500 g/ha, Postemergence, scale 0 to 10, 0 is no effect, 10 is complete control
[23] = Rate 500 g/ha, Preemergence, scale 0 to 10 (0 no effect, 10 complete control)
[24] = Rate 62 g/ha, Preemergence, scale 0 to 10

## CC(C)N(C(=O)n1oc(=O)n(C[C@H](C)Cl)c1=O)c1ccc(Cl)cc1 [Compound 748]
[1]; [17]
  Plant response rating, Bedstraw: 5
[1]; [18]
  Bedstraw plant response rating: 6
[1]; [19]
  Plant response rating, Bedstraw: 0
[1]; [20]
  Bedstraw plant response rating: 0
[1]; [21]
  Bedstraw plant response rating: 9
[1]; [22]
  Bedstraw plant response rating: 9
[1]; [23]
  Bedstraw plant response rating: 0
[2]; [17]
  Plant response rating, Blackgrass: 5
[2]; [18]
  Blackgrass plant response rating: 6
[2]; [19]
  Plant response rating, Blackgrass: 3
[2]; [24]
  Blackgrass plant response rating: 0
[2]; [21]
  Blackgrass plant response rating: 7
[2]; [22]
  Blackgrass plant response rating: 8
[2]; [23]
  Blackgrass plant response rating: 9
[3]; [17]
  Plant response rating, B. signalgrass: 2
[3]; [18]
  B. signalgrass plant response rating: 2
[3]; Preemergence, Rate 62 g/ha, scale of 0 to 10 where 0 is no effect and 10 is complete control
  B. signalgrass plant response rating: 0
[3]; [19]
  Plant response rating, B. signalgrass: 3
[3]; [20]
  B. signalgrass plant response rating: 3
[3]; [21]
  B. signalgrass plant response rating: 4
[3]; [22]
  B. signalgrass plant response rating: 7
[3]; [23]
  B. signalgrass plant response rating: 10
[4]; [17]
  Plant response rating, Cocklebur: 0
[4]; [18]
  Cocklebur plant response rating: 0
[4]; [19]
  Plant response rating, Cocklebur: 0
[4]; [20]
  Cocklebur plant response rating: 0
[4]; [24]
  Cocklebur plant response rating: 0
[4]; [21]
  Cocklebur plant response rating: 0
[4]; [23]
  Cocklebur plant response rating: 0
[5]; [17]
  Plant response rating, Corn: 0
[5]; [18]
  Corn plant response rating: 0
[5]; [19]
  Plant response rating, Corn: 0
[5]; [20]
  Corn plant response rating: 0
[5]; [24]
  Corn plant response rating: 0
[5]; [21]
  Corn plant response rating: 0
[5]; [22]
  Corn plant response rating: 0
[5]; [23]
  Corn plant response rating: 4
[6]; [17]
  Plant response rating, Crabgrass: 2
[6]; [18]
  Crabgrass plant response rating: 3
[6]; [19]
  Plant response rating, Crabgrass: 10
[6]; [20]
  Crabgrass plant response rating: 10
[6]; [24]
  Crabgrass plant response rating: 9
[6]; [21]
  Crabgrass plant response rating: 8
[6]; [22]
  Crabgrass plant response rating: 9
[6]; [23]
  Crabgrass plant response rating: 10
[7]; [17]
  Plant response rating, Giant foxtail: 2
[7]; [18]
  Giant foxtail plant response rating: 6
[7]; [19]
  Plant response rating, Giant foxtail: 10
[7]; [20]
  Giant foxtail plant response rating: 10
[7]; [24]
  Giant foxtail plant response rating: 9
[7]; [21]
  Giant foxtail plant response rating: 8
[7]; [22]
  Giant foxtail plant response rating: 9
[7]; [23]
  Giant foxtail plant response rating: 10
[8]; [17]
  Plant response rating, Morningglory: 0
[8]; [18]
  Morningglory plant response rating: 6
[8]; [19]
  Plant response rating, Morningglory: 0
[8]; [20]
  Morningglory plant response rating: 0
[8]; [24]
  Morningglory plant response rating: 0
[8]; [21]
  Morningglory plant response rating: 6
[8]; [22]
  Morningglory plant response rating: 7
[8]; [23]
  Morningglory plant response rating: 0
[9]; [17]
  Plant response rating, Redroot pigweed: 2
[9]; [18]
  Redroot pigweed plant response rating: 4
[9]; [19]
  Plant response rating, Redroot pigweed: 10
[9]; [20]
  Redroot pigweed plant response rating: 10
[9]; [24]
  Redroot pigweed plant response rating: 4
[9]; [21]
  Redroot pigweed plant response rating: 6
[9]; [22]
  Redroot pigweed plant response rating: 8
[9]; [23]
  Redroot pigweed plant response rating: 10
[10]; [17]
  Plant response rating, Rape: 0
[10]; [18]
  Rape plant response rating: 3
[10]; [19]
  Plant response rating, Rape: 0
[10]; [20]
  Rape plant response rating: 0
[10]; [24]
  Rape plant response rating: 0
[10]; [21]
  Rape plant response rating: 6
[10]; [22]
  Rape plant response rating: 7
[10]; [23]
  Rape plant response rating: 7
[11]; [17]
  Plant response rating, Soybean: 3
[11]; [18]
  Soybean plant response rating: 3
[11]; [19]
  Plant response rating, Soybean: 0
[11]; [20]
  Soybean plant response rating: 0
[11]; [24]
  Soybean plant response rating: 0
[11]; [21]
  Soybean plant response rating: 4
[11]; [22]
  Soybean plant response rating: 5
[11]; [23]
  Soybean plant response rating: 0
[12]; [17]
  Plant response rating, Sugarbeets: 0
[12]; [18]
  Sugarbeets plant response rating: 2
[12]; [19]
  Plant response rating, Sugarbeets: 0
[12]; [20]
  Sugarbeets plant response rating: 2
[12]; [24]
  Sugarbeets plant response rating: 0
[12]; [21]
  Sugarbeets plant response rating: 6
[12]; [22]
  Sugarbeets plant response rating: 7
[12]; [23]
  Sugarbeets plant response rating: 7
[13]; [17]
  Plant response rating, Velvetleaf: 0
[13]; [18]
  Velvetleaf plant response rating: 0
[13]; [19]
  Plant response rating, Velvetleaf: 0
[13]; [20]
  Velvetleaf plant response rating: 0
[13]; [24]
  Velvetleaf plant response rating: 0
[13]; [21]
  Velvetleaf plant response rating: 0
[13]; [22]
  Velvetleaf plant response rating: 4
[13]; [23]
  Velvetleaf plant response rating: 0
[14]; [17]
  Plant response rating, Wheat: 0
[14]; [18]
  Wheat plant response rating: 0
[14]; [19]
  Plant response rating, Wheat: 0
[14]; [20]
  Wheat plant response rating: 0
[14]; [24]
  Wheat plant response rating: 0
[14]; [21]
  Wheat plant response rating: 0
[14]; [23]
  Wheat plant response rating: 5
[15]; [17]
  Plant response rating, Wild oats: 0
[15]; [18]
  Wild oats plant response rating: 0
[15]; [19]
  Plant response rating, Wild oats: 2
[15]; [20]
  Wild oats plant response rating: 2
[15]; [24]
  Wild oats plant response rating: 0
[15]; [21]
  Wild oats plant response rating: 0
[15]; [22]
  Wild oats plant response rating: 0
[15]; [23]
  Wild oats plant response rating: 8
[16]; [17]
  Plant response rating, Nutsedge: 0
[16]; [18]
  Nutsedge plant response rating: 0
[16]; [19]
  Plant response rating, Nutsedge: 0
[16]; [20]
  Nutsedge plant response rating: 0
[16]; [24]
  Nutsedge plant response rating: 0
[16]; [21]
  Nutsedge plant response rating: 0
[16]; [22]
  Nutsedge plant response rating: 0
[16]; [23]
  Nutsedge plant response rating: 2
